Data on one molecule can be found in patent US20200046712A1, “PROCESS FOR MAKING 1,3,7- TRIMETHYLURIC ACID WATER SOLUBLE SALTS OR CO-CRYSTALS AND THEIR USAGE IN DIETARY SUPPLEMENTS OR FUNCTIONAL FOODS FORMULATIONS” (Arcadia Biotechnology Ltd., priority 2018, published 2020).

Counter-ions that a name gives are not always drawn.

A short description of this data set: Solubility in water. Format: physicochemical. The following applies: 500 mg upon stirring in 8 oz of room temperature water.

As for `Cn1c(=O)c2c([nH]c(=O)n2C)n(C)c1=O` [1,3,7-trimethyluric acid sodium salt], the solubility in water entry is listed as “dissolved completely”.
